Test results from patent US8846066B2, “Methods and related compositions for reduction of fat and skin tightening” (The Regents of the University of California, priority 2004, dated 2014).
Several values for one entry are separate records, joined by “and”; a condition that tells them apart may be missing. Identical values can stand only once.

Assays:
[1] = tested on: HaCaT human keratinocyte cells; test: MTS cell viability assay in cultured HaCaT cells; type: cell-based; conditions: for cell viability (MTS, OD 490): 30 min at 37° C.
Protocol: To measure cell viability after detergent treatment, HaCaT human keratinocyte cells were cultured in DMEM (Dulbecco's modified Eagle's medium) supplemented with 10% fetal calf serum, penicillin, and streptomycin. […] Cell viability was determined by an absorbance spectrophotometer (at 490 nm) after 4 hour incubation with the assay at 37° C. To determine cell viability in fresh tissue, fat specimens were incubated for 4 hours in 24 well plates with stock reagents and the MTS assay. Tissue specimens were then visualized for color change and the amount of MTS in their supernatants was measured by absorbance (at 490 nm). All studies were performed in triplicate. Absorbance at 490 nm (OD 490) is proportional to the number of living cells in the culture.

SKmel28 = test: Killing by DC after pre-incubation with human lipoma fat, SKmel28; type: cell-based
Protocol: The experiment was performed on a series of immortalized melanocyte cell lines. Resected human lipomas were ground up, and DC-containing media was mixed with the human fat and agitated for 24 hours. The material was centrifuged to pellet insoluble contents. The supernatants were then added on top of cultured melanocytes. Control was the identical DC-containing media not exposed to the fat chunks. Also, fat alone (no media) was added as a control.

[2] = single wells, DC 0.1% media not exposed to fat
[3] = single wells, supernatant of DC 0.1% media agitated 24 hours with human lipoma fat

For `C[C@H](CCC(=O)[O-])[C@H]1CC[C@H]2[C@@H]3CC[C@@H]4C[C@H](O)CC[C@]4(C)[C@H]3C[C@H](O)[C@]12C.[Na+]` [DC, sodium deoxycholate], the “cell viability (MTS, OD 490)” value ([1]; 0.005% dilution) was “little effect”, the “cell viability (MTS, OD 490)” value ([1]; 0.05% and 0.5% concentrations) was “progressively decreased” and the “viability of cultured cells (MTS, FIG. 2a)” value ([1]; approximately equal to the complete PBF) was “profoundly decreased the viability of cultured cells”. The “Percentage, DC 0.1%” value (SKmel28; Control = 1.000, DC 0.1% media not exposed to fat) was 0.098, the “Percentage, DC 0.1% + fat” value (SKmel28; Control = 1.000, DC 0.1% media pre-incubated with human lipoma fat) was 0.485 and the “Average, DC 0.1%” value (SKmel28; DC 0.1% media not exposed to fat) was 0.060. For the same compound, the “Actual, DC 0.1%” value (SKmel28; [2]) was 0.061 and 0.060, the “SKmel28 (readings), DC 0.1%” value (SKmel28; [2]) was 0.061 and 0.060 and the “Actual, DC 0.1% + fat” value (SKmel28; [3]) was 0.290 and 0.304 and 0.302. For the same compound, the “SKmel28 (readings), DC 0.1% + fat” value (SKmel28; [3]) was 0.290 and 0.304 and 0.302 and the “Average, DC 0.1% + fat” value (SKmel28; supernatant of DC 0.1% media agitated 24 hours with human lipoma fat) was 0.299.
